We go through 84 compounds from PubChem BioAssay AID1199 (EPA DSSTox, 2008).

Active and inactive are the calls of the source.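 The calls were made as follows: active = a tumour-causing dose and a tumour site recorded for mice in at least one sex group; inconclusive = only government mouse studies exist and were judged inadequate; inactive = mouse studies exist but none gave tumours.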

The subject of the data set is mouse carcinogenicity bioassay, TD50 from CPDB. As to the kind of experiment: DSSTox (CPDBAS) Carcinogenic Potency Database Summary Mouse Bioassay Results. An outline of the steps: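 Chronic long-term mouse cancer bioassays from literature and NCI/NTP, compiled per sex. TD50 is the standardized carcinogenic potency, using the most positive experiment per sex-species; target sites follow author opinion.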

The mark [1] stands for this setting: TargetSites_Mouse_Female: no positive results.
Where [2] appears, read: TD50_Mouse_Note: TD50 is harmonic mean of more than one positive test, TargetSites_Mouse_Female: liver.
[3] abbreviates: TargetSites_Mouse_Female: liver.
[4] abbreviates: TD50_Mouse_Note: no positive results, TargetSites_Mouse_Female: no positive results.
Setting [5] is: TD50_Mouse_Note: TD50 is harmonic mean of more than one positive test, TargetSites_Mouse_Female: lung.
[6] abbreviates: TD50_Mouse_Note: TD50 is harmonic mean of more than one positive test, TargetSites_Mouse_Female: stomach.

`CC12CCC(CC1)C(C)(C)O2`: the outcome (TD50_Mouse_Note: no positive results) is “inactive; no positive results”. Turning to `CC/C(=C(/CC)c1ccc(O)cc1)c1ccc(O)cc1`, the Potency (TD50_Mouse_Note: TD50 is harmonic mean of more than one positive test, TargetSites_Mouse_Female: mammary gland, ovary, pituitary gland, thyroid gland, uterus) is 0.000146 mmol/kg/day. As to `Cc1c2ccccc2c(C)c2c1ccc1ccccc12`, the Potency (TargetSites_Mouse_Female: vascular system) is 0.000328 mmol/kg/day. Take `O=S(=O)([O-])[O-].O=S(=O)([O-])[O-].[Zr+4]`: the result (TargetSites_Mouse_BothSexes: no positive results) was inactive.

Regarding `C#CC(C)(C)NC(=O)c1cc(Cl)cc(Cl)c1`, the Potency was 0.547 mmol/kg/day. Consider `Cl/C=C/CCl`, for which the Potency is 0.447 mmol/kg/day (TargetSites_Mouse_Female: lung, stomach, urinary bladder) and 1.06 mmol/kg/day under setting [1].

On to `Cc1cc(C)nc(NS(=O)(=O)c2ccc(N)cc2)n1`, for which the Potency (TD50_Mouse_Note: TD50 is harmonic mean of more than one positive test, TargetSites_Mouse_Female: thyroid gland) was 5.43 mmol/kg/day. In the case of `CCn1c2ccccc2c2cc(N)ccc21`, where the note is “TD50_Mouse_Note: TD50 is harmonic mean of more than one positive test, TD50_Mouse_mmol was not calculated for this mixture, but Activiity, TargetSites_Mouse_Female: liver”, the outcome was “active; liver”. For the same compound, under setting [2], the Potency was 0.156 mmol/kg/day. Take `CCCCC(CC)CO` (stereo not drawn): the Potency under setting [3] was 12.9 mmol/kg/day. Turning to `NC(=O)c1ccncc1`, the outcome under setting [4] was “inactive; no positive results”.

In the case of `C=CCN(N)CC=C`, the Potency (TD50_Mouse_Note: TD50 is harmonic mean of more than one positive test, TargetSites_Mouse_Female: lung, stomach) was 0.264 mmol/kg/day. For `CC(=O)NNC(C)=O`, the outcome under setting [4] is “inactive; no positive results”. The same measure, in the same setting: as for `CNC[C@H](O)c1cccc(O)c1`, the entry is “inactive; no positive results”. Turning to `Brc1cc(Br)c(-c2c(Br)c(Br)c(Br)c(Br)c2Br)c(Br)c1Br`, the Potency under setting [2] was 0.00418 mmol/kg/day.

Turning to `c1ccc(NNc2ccccc2)cc1`, the Potency under setting [3] is 0.141 mmol/kg/day. On to `NN`, for which the Potency under setting [5] is 0.0914 mmol/kg/day. For the compound `ClC1=C(Cl)C(Cl)(Cl)C(Cl)=C1Cl`, under setting [4], the outcome is “inactive; no positive results”.

Regarding `CC(C)NCC(O)COc1cccc2ccccc12` (stereo not drawn), the outcome under setting [4] is “inactive; no positive results”.

In the case of `NC(N)=NC(N)=NCCc1ccccc1`, the outcome under setting [4] was “inactive; no positive results”. On to `CCCc1cc(=O)[nH]c(=S)[nH]1`, for which the Potency (TargetSites_Mouse_BothSexes: pituitary gland) is 2.4 mmol/kg/day. Consider `CNc1ncnc2c1ncn2[C@@H]1O[C@H](CO)[C@@H](O)[C@H]1O`, for which, under setting [4], the outcome was “inactive; no positive results”.

Turning to `CN(C)c1ccc(N=NS(=O)(=O)O)cc1`, the outcome under setting [4] is “inactive; no positive results”.

With `O=C(CCl)c1ccccc1`, the outcome under setting [4] is “inactive; no positive results”. The same measure, in the same setting: with `O=C1CCC(=O)O1` the entry was “inactive; no positive results”. `Nc1ccccc1N`: under setting [2], the Potency was 4.06 mmol/kg/day. With `ClCC(Cl)CCl`, the Potency (TD50_Mouse_Note: TD50 is harmonic mean of more than one positive test, TargetSites_Mouse_Female: harderian gland, liver, oral cavity, stomach, uterus) was 0.00593 mmol/kg/day. Regarding `Nc1ccc(/C=C/c2ccc(N)cc2S(=O)(=O)O)c(S(=O)(=O)O)c1`, the outcome under setting [4] was “inactive; no positive results”. Regarding `COc1cc(-c2ccc(N)c(OC)c2)ccc1N`, where the note is “TD50_Mouse_Note: no positive results are statistically significant, TargetSites_Mouse_Female: no positive results”, the Potency is 0.233 mmol/kg/day.

For `C=CCNNCC=C`, the Potency under setting [5] was 0.183 mmol/kg/day. With `O=P1(N(CCCl)CCCl)NCCCO1` (stereo not drawn), the Potency (TD50_Mouse_Note: positive test results only by intraperitoneal or intravenous injection, TD50 is harmonic mean of more than one positive, TargetSites_Mouse_Female: hematopoietic system, lung) is 0.0228 mmol/kg/day. `C[C@]12CC[C@@H]3c4ccc(O)cc4CC[C@H]3[C@@H]1CC[C@@H]2O`: the result under setting [4] was inactive.

On to `Oc1cccc(O)c1`, for which, under setting [4], the outcome was “inactive; no positive results”. Turning to `C=CC#N`, the Potency (TD50_Mouse_Note: TD50 is harmonic mean of more than one positive test, TargetSites_Mouse_Female: harderian gland, stomach) is 0.119 mmol/kg/day. On to `CC1CC(C)(C)CC(OOC(C)(C)C)(OOC(C)(C)C)C1` (stereo not drawn), for which the outcome under setting [4] was “inactive; no positive results”. In the case of `ClC=C(Cl)Cl`, the Potency is 2.61 mmol/kg/day under setting [2] and 12 mmol/kg/day (TD50_Mouse_Note: TD50 is harmonic mean of more than one positive test, greater than ten-fold variation among TD50 values for positive res, TargetSites_Mouse_Female: liver, lung). Turning to `O=C1CN=C(c2ccccc2)c2cc(Cl)ccc2N1CC1CC1`, the outcome under setting [4] is “inactive; no positive results”. Consider `COc1cc2c(c3oc4cccc(O)c4c(=O)c13)C1C=COC1O2` (stereo not drawn), for which, under “TD50_Mouse_Note: TD50 is harmonic mean of more than one positive test, TargetSites_Mouse_Female: vascular system”, the Potency is 0.0028 mmol/kg/day. As for `O=CNNc1nc(-c2ccc([N+](=O)[O-])o2)cs1`, the Potency (TD50_Mouse_Note: TD50 is harmonic mean of more than one positive test, TargetSites_Mouse_Female: hematopoietic system, stomach) is 0.0425 mmol/kg/day. As for `C#C[C@]1(O)CC[C@H]2[C@@H]3CCC4=C(CCC(=O)C4)[C@H]3CC[C@@]21C`, the outcome (TD50_Mouse_Note: TD50 is harmonic mean of more than one positive test, greater than ten-fold variation among TD50 values for positive res, TargetSites_Mouse_Female: pituitary gland) was “active; no positive results” and the outcome under setting [4] was “inactive; no positive results”. Take `CC(COc1ccc(C(C)(C)C)cc1)OS(=O)OCCCl` (stereo not drawn): under setting [1], the Potency is 0.472 mmol/kg/day.

As for `Cc1ccc(N=C=O)cc1N=C=O`, the Potency (TargetSites_Mouse_Female: liver, vascular system) is 1.44 mmol/kg/day.

On to `C=CC(=O)NCO`, for which, under “TD50_Mouse_Note: TD50 is harmonic mean of more than one positive test, TargetSites_Mouse_Female: harderian gland, liver, lung, ovary”, the Potency is 0.263 mmol/kg/day. Regarding `O=C(O)c1ccccc1`, under setting [4], the outcome was “inactive; no positive results”. Same read-out and setting: as for `CCOP(=O)(CC1CO1)OCC` (stereo not drawn), the entry is “inactive”. Take `OCCBr`: under setting [6], the Potency was 0.609 mmol/kg/day.

As to `Nc1ccc(NC(=O)c2ccc(N)cc2)cc1`, under setting [4], the outcome was “inactive; no positive results”.

For the compound `CCc1cc(C(N)=S)ccn1`, under “TargetSites_Mouse_Female: thyroid gland”, the Potency was 0.417 mmol/kg/day. Regarding `c1ccc(N=Nc2ccccc2)cc1`, the outcome under setting [4] was “inactive; no positive results”. With `COc1ccc(C(c2ccc(OC)cc2)C(Cl)(Cl)Cl)cc1`, the outcome under setting [4] is “inactive; no positive results”. On to `Nc1ccc(Oc2ccc(Cl)cc2)cc1`, for which the Potency (TargetSites_Mouse_Female: urinary bladder, vascular system) is 1.58 mmol/kg/day.

Turning to `Nc1nc(-c2ccc([N+](=O)[O-])cc2)cs1`, the Potency (TargetSites_Mouse_Female: hematopoietic system) was 0.045 mmol/kg/day.

With `NC(N)=O`, the outcome under setting [4] is “inactive; no positive results”. On to `c1ccc2c(c1)Oc1ccccc1O2`, for which, under setting [4], the outcome was “inactive; no positive results”. The same measure, in the same setting: as for `CCCCOC(=O)c1ccccc1C(=O)OCc1ccccc1`, the entry is “inactive; no positive results”. With `N#[N+]c1ccccc1`, under setting [5], the Potency is 0.0712 mmol/kg/day.

With `CNC(=O)O/N=C(\SC)C(=O)N(C)C`, under setting [4], the outcome was “inactive; no positive results”. Regarding `Nc1ccc(N=Nc2ccc(-c3ccc(N=Nc4c(S(=O)(=O)O)cc5cc(S(=O)(=O)O)c(N=Nc6ccccc6)c(O)c5c4N)cc3)cc2)c(N)c1`, the Potency (TargetSites_Mouse_BothSexes: liver, mammary gland) was 0.0916 mmol/kg/day. On to `CC1=NN(c2ccccc2)C(=O)C1`, for which, under setting [4], the outcome was “inactive; no positive results”. Still for that read-out and setting: with `Oc1c(Cl)cc(Cl)cc1Sc1cc(Cl)cc(Cl)c1O` the entry was “inactive; no positive results”. For `CC(COc1ccccc1)N(CCCl)Cc1ccccc1` (stereo not drawn), the Potency (TD50_Mouse_Note: positive test results only by intraperitoneal or intravenous injection, TD50 is harmonic mean of more than one positive, TargetSites_Mouse_Female: peritoneal cavity) was 0.0158 mmol/kg/day. Take `CN(C)C(=S)S`: the outcome under setting [4] was “inactive; no positive results”. With `NC(=O)CCCCn1ccc(NC(N)=NCC(F)(F)F)n1`, the Potency under setting [6] was 1.84 mmol/kg/day. Consider `[Cd+2].[Cl-].[Cl-]`, for which the result under setting [4] was inactive. Still for that read-out and setting: with `CCN(Cc1cccc(S(=O)(=O)O)c1)c1ccc(C(=C2C=CC(=[N+](CC)Cc3cccc(S(=O)(=O)[O-])c3)C=C2)c2ccccc2)cc1` the entry was “inactive; no positive results”. Consider `Clc1ccc(Cl)cc1`, for which the Potency under setting [2] was 2.2 mmol/kg/day. Take `CN1C(=O)C[C@@H](C(=O)N[C@@H](Cc2cnc[nH]2)C(=O)N2CCC[C@H]2C(N)=O)NC1=O`: the outcome under setting [4] is “inactive; no positive results”. The same measure, in the same setting: with `Cc1ccccc1` the entry was “inactive; no positive results”. As for `CC(=O)NNC(=O)c1ccncc1`, under setting [5], the Potency was 1.84 mmol/kg/day. Consider `C1C2OC2C2C1C1CC2C2OC12` (stereo not drawn), for which, under setting [4], the outcome was “inactive; no positive results”. Take `CCCCN(CCCC)N=O`: the Potency was 0.00689 mmol/kg/day. As to `ClCCl`, the Potency (TD50_Mouse_Note: TD50 is harmonic mean of more than one positive test, TargetSites_Mouse_Female: liver, lung) is 13 mmol/kg/day. In the case of `C[C@H]([C@H](O)CCC(C)(C)O)[C@H]1CC[C@@]2(O)C3=CC(=O)[C@@H]4C[C@@H](O)[C@@H](O)C[C@]4(C)[C@H]3CC[C@]12C`, where the note is “TD50_Mouse_Note: TD50 is harmonic mean of more than one positive test, TargetSites_Mouse_Female: mammary gland”, the Potency is 7.7e-05 mmol/kg/day.

In the case of `O=C/C(Cl)=C(/Cl)C(=O)O`, the outcome under setting [4] was “inactive; no positive results”.

`CCCCNN`: under setting [5], the Potency was 0.0971 mmol/kg/day. For `Cc1[nH]cnc1CSCCN=C(NC#N)N(C)N=O`, the outcome under setting [4] was inactive. `COc1ccc(N)cc1`: under setting [4], the outcome is “inactive; no positive results”. `S=C=Nc1ccccc1`: the outcome under setting [4] is “inactive; no positive results”. `COc1cc(N=Nc2ccccc2)ccc1N`: the Potency under setting [3] was 0.265 mmol/kg/day. Consider `Nc1ccccc1C(=O)O`, for which the outcome under setting [4] is “inactive; no positive results”.

With `CC1=CC(=O)NS(=O)(=O)O1`, the outcome under setting [4] was “inactive; no positive results”. `Clc1cccc(-c2ccc(Cl)c(Cl)c2Cl)c1Cl`: where the note is “TD50_Mouse_Note: TD50_Mouse_mmol was not calculated for this mixture, but Activiity Score is assigned value of 50 to indicate active”, the outcome was “active; liver”. On to `ClC(Br)Br`, for which the Potency under setting [3] is 0.667 mmol/kg/day.

Take `O=C(O)c1cc(Oc2ccc(C(F)(F)F)cc2Cl)ccc1[N+](=O)[O-]`: for the setting “TD50_Mouse_Note: TD50 is harmonic mean of more than one positive test, TargetSites_Mouse_Female: liver, stomach”, the Potency was 0.39 mmol/kg/day. For `c1ccc(C2CO2)cc1` (stereo not drawn), under setting [6], the Potency is 0.982 mmol/kg/day.
